{"source": "patent US20220282217A1", "about": "“COMPOSITIONS AND METHODS FOR PREPARING T CELL COMPOSITIONS AND USES THEREOF” (priority 2019, published 2022)", "note": "Where a SMILES comes first, the peptide text is derived from it."}
{"target": "HLA-A02.01 (Homo sapiens, UniProt P04439, D140Y/D185E/D98H/E176V/E277Q/G131W/G231S/I119V/I121R/I166T/I218V/L300P/L318F/N151K/N90K/P208A/P217A/Q86G/Q94H/R138H/R169H/T345S)", "assay": "Class I MHC peptide binding affinity (displacement of radiolabeled reference peptide)", "details": "BTK C481S peptide; HLA Allele A02.01; read-out: Affinity", "outline": "(§1)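 Peptides compete against a prebound radiolabeled reference on MHCI over 2 days at several concentrations.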", "units": {"IC50": "nM"}}
{"smiles": "CSCC[C@H](N)C(=O)N[C@@H](C)C(=O)N[C@@H](CC(N)=O)C(=O)NCC(=O)N[C@@H](CO)C(=O)N[C@@H](CC(C)C)C(=O)N[C@@H](CC(C)C)C(=O)N[C@@H](CC(N)=O)C(=O)N[C@@H](Cc1ccc(O)cc1)C(=O)N[C@@H](CC(C)C)C(=O)O", "IC50": 1010}
{"target": "HLA-A02.01 (Homo sapiens, UniProt P04439, D140Y/D185E/D98H/E176V/E277Q/G131W/G231S/I119V/I121R/I166T/I218V/L300P/L318F/N151K/N90K/P208A/P217A/Q86G/Q94H/R138H/R169H/T345S)", "assay": "Class I MHC peptide binding affinity (displacement of radiolabeled reference peptide)", "details": "allele A02.01; read-out: Observed Affinity (IC50; (nM))", "outline": "as §1", "units": {"IC50": "nM"}}
{"smiles": "CC(C)C[C@H](NC(=O)[C@@H]1CCCN1C(=O)[C@@H]1CCCN1C(=O)[C@@H](NC(=O)[C@H](CC(=O)O)NC(=O)[C@H](CCC(=O)O)NC(=O)[C@@H]1CCCN1C(=O)[C@H](CC(C)C)NC(=O)[C@@H](N)CC(C)C)[C@@H](C)O)C(=O)O", "note": "(H-LLPEDTPPL-OH; N-terminus and C-terminus assumed)", "IC50": 2.8}
{"smiles": "CC[C@H](C)[C@H](NC(=O)[C@@H]1CCCN1C(=O)[C@H](CCCNC(=N)N)NC(=O)[C@H](CCCNC(=N)N)NC(=O)[C@H](CC(N)=O)NC(=O)[C@H](CCSC)NC(=O)[C@H](CO)NC(=O)CNC(=O)[C@H](CCSC)NC(=O)[C@@H](N)CS)C(=O)O", "note": "(H-CMGSMNRRPI-OH; N-terminus and C-terminus assumed)", "IC50": 1990}
{"smiles": "CSCC[C@H](NC(=O)[C@H](CCC(=O)O)NC(=O)[C@H](CC(C)C)NC(=O)[C@H](CC(C)C)NC(=O)[C@H](CC(C)C)NC(=O)[C@H](CC(=O)O)NC(=O)[C@H](CC(N)=O)NC(=O)[C@H](CC(C)C)NC(=O)[C@@H]1CCCN1)C(=O)N[C@@H](CC(C)C)C(=O)O", "note": "(H-PLNDLLLEML-OH; N-terminus and C-terminus assumed)", "IC50": 12000}
{"smiles": "CC[C@H](C)[C@H](NC(=O)[C@@H](N)Cc1ccccc1)C(=O)N[C@@H](CC(C)C)C(=O)N[C@@H](CCSC)C(=O)N[C@@H](CCC(=O)O)C(=O)N[C@@H](CC(C)C)C(=O)N[C@@H](CCSC)C(=O)N[C@@H](C)C(=O)NCC(=O)NCC(=O)O", "note": "(H-FILMELMAGG-OH; N-terminus and C-terminus assumed)", "IC50": 1580}
{"smiles": "CC(C)C[C@H](NC(=O)[C@H](Cc1ccccc1)NC(=O)[C@H](CO)NC(=O)[C@H](CC(C)C)NC(=O)[C@H](CS)NC(=O)[C@H](CO)NC(=O)[C@H](Cc1ccccc1)NC(=O)[C@H](CC(C)C)NC(=O)[C@H](CCCCN)NC(=O)[C@@H](N)Cc1ccccc1)C(=O)O", "note": "(H-FKLFSCLSFL-OH; N-terminus and C-terminus assumed)", "IC50": 663}
{"smiles": "CC[C@H](C)[C@H](N)C(=O)N[C@@H](CC(C)C)C(=O)N[C@@H](CC(C)C)C(=O)N1CCC[C@H]1C(=O)N[C@@H](CCC(=O)O)C(=O)N[C@@H](CC(=O)O)C(=O)N[C@H](C(=O)N1CCC[C@H]1C(=O)N1CCC[C@H]1C(=O)N[C@@H](CC(C)C)C(=O)O)[C@@H](C)O", "note": "(H-ILLPEDTPPL-OH; N-terminus and C-terminus assumed)", "IC50": 6.7}
{"smiles": "CC(C)C[C@H](NC(=O)[C@H](CCCNC(=N)N)NC(=O)[C@@H](NC(=O)[C@@H](N)CC(C)C)C(C)C)C(=O)N[C@@H](CO)C(=O)N[C@@H](CO)C(=O)N[C@@H](CS)C(=O)N[C@H](C(=O)N1CCC[C@H]1C(=O)N[C@H](C(=O)O)C(C)C)C(C)C", "note": "(H-LVRLSSCVPV-OH; N-terminus and C-terminus assumed)", "IC50": 1240}
{"smiles": "CSCC[C@H](N)C(=O)N[C@@H](C)C(=O)N[C@@H](CC(N)=O)C(=O)NCC(=O)N[C@@H](CO)C(=O)N[C@@H](CC(C)C)C(=O)N[C@@H](CC(C)C)C(=O)N[C@@H](CC(N)=O)C(=O)N[C@@H](Cc1ccc(O)cc1)C(=O)N[C@@H](CC(C)C)C(=O)O", "IC50": 1080}
{"smiles": "CC[C@H](C)[C@H](NC(=O)[C@@H](NC(=O)[C@@H](NC(=O)[C@H](CC(C)C)NC(=O)[C@@H](NC(=O)[C@@H]1CCCN1C(=O)[C@H](CCCNC(=N)N)NC(=O)[C@H](CCC(N)=O)NC(=O)[C@@H](N)CC(N)=O)[C@@H](C)CC)[C@@H](C)O)[C@@H](C)CC)C(=O)O", "note": "(H-NQRPILTII-OH; N-terminus and C-terminus assumed)", "IC50": 9610}
{"smiles": "CC[C@H](C)[C@H](NC(=O)[C@H](CCC(N)=O)NC(=O)[C@H](Cc1c[nH]c2ccccc12)NC(=O)[C@H](Cc1ccccc1)NC(=O)CNC(=O)[C@H](CS)NC(=O)[C@H](CC(C)C)NC(=O)[C@H](C)NC(=O)[C@@H](N)Cc1ccccc1)C(=O)O", "note": "(H-FALCGFWQI-OH; N-terminus and C-terminus assumed)", "IC50": 0.4}
{"smiles": "CC[C@H](C)[C@H](NC(=O)[C@H](CO)NC(=O)[C@H](CC(C)C)NC(=O)CN)C(=O)N[C@@H](CO)C(=O)N[C@@H](CS)C(=O)N[C@H](C(=O)N[C@H](C(=O)N[C@@H](CC(C)C)C(=O)O)[C@@H](C)O)[C@@H](C)O", "note": "(H-GLSISCTTL-OH; N-terminus and C-terminus assumed)", "IC50": 114}
